The test addresses T1, human TPH1 (Homo sapiens, UniProt P17752).
T1 sequence (P17752 1-444): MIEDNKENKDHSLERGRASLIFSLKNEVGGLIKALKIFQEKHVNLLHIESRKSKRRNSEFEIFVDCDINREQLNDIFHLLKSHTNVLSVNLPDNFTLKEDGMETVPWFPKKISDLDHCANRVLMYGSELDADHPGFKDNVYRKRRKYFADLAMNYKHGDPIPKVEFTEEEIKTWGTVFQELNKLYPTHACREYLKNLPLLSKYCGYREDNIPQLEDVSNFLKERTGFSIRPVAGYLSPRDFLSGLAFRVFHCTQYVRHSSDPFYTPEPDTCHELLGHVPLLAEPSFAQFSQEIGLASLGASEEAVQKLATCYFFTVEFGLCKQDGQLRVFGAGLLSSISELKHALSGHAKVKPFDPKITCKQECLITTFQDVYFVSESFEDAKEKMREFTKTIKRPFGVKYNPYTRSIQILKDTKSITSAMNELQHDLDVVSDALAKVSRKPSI
Description: biochemical. The gist of the method:
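Inhibition is derived from 5-hydroxy-L-tryptophan fluorescence (540 nm emission, 300 nm excitation) after perchloric acid stop, relative to DMSO vehicle. Recombinant full-length human enzyme (40-80 nM) reacts with 40 μM tryptophan plus 100 μM methyltetrahydropterin, pH 7.6 Tris/DTT/catalase, 15° C, 60 min.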
`O=C(COc1ccc2ccccc2c1)N1CCc2nc3cc(C(F)(F)F)ccn3c2C1c1cc(-c2ccc(F)cc2)on1` (stereo not shown) [Example 3.47.1, 1-(1-(5-(4-fluorophenyl)isoxazol-3-yl)-7-(trifluoromethyl)-3,4-dihydroimidazo[1,2-a:5,4-c′]dipyridin-2(1H)-yl)-2-(naphthalen-2-yloxy)ethan-1-one] gave an IC50 of 368 nM.

`O=C(COc1cccnc1Cl)N1CCc2nc3ccccn3c2C1c1ccc(Cl)cc1F` (stereo not shown) [Example 1.4.3, 1-(1-(4-chloro-2-fluorophenyl)-3,4-dihydroimidazo[1,2-a:5,4-c′]dipyridin-2(1H)-yl)-2-((2-chloropyridin-3-yl)oxy)ethan-1-one] showed an IC50 of 271 nM. The IC50 values of the last two compounds are within 1.5-fold of each other.

`Cc1noc(C)c1C1c2c(nc3cc(C(F)(F)F)ccn23)CCN1C(=O)COc1ccc(CN2CCOCC2)cc1Cl` (stereo not shown) [Example 3.51.2, 2-(2-chloro-4-(morpholinomethyl)phenoxy)-1-(1-(3,5-dimethylisoxazol-4-yl)-7-(trifluoromethyl)-3,4-dihydroimidazo[1,2-a:5,4-c′]dipyridin-2(1H)-yl)ethan-1-one]: half-maximal inhibition (IC50) required 217 nM. This IC50 and that of the compound before are within 1.5-fold of each other.

As to `Cc1ccc(C2c3c(nc4cc(C(F)(F)F)ccn34)CCN2C(=O)COc2cc(-c3ccccc3)nn2C)nc1` (stereo not shown) [Example 3.50.3, 2-((1-methyl-3-phenyl-1H-pyrazol-5-yl)oxy)-1-(1-(5-methylpyridin-2-yl)-7-(trifluoromethyl)-3,4-dihydroimidazo[1,2-a:5,4-c′]dipyridin-2(1H)-yl)ethan-1-one], half-maximal inhibition (IC50) required 468 nM.

As for `O=C(COc1ccc(CN2CCOCC2)cc1Cl)N1CCc2nc3cc(C(F)(F)F)ccn3c2C1c1ccc(F)cc1` (stereo not shown) [Example 3.29.2, 2-(2-chloro-4-(morpholinomethyl)phenoxy)-1-(1-(4-fluorophenyl)-7-(trifluoromethyl)-3,4-dihydroimidazo[1,2-a:5,4-c′]dipyridin-2(1H)-yl)ethan-1-one], half-maximal inhibition (IC50) was put at 202 nM.

`CCc1nc(NS(C)(=O)=O)ccc1OCC(=O)N1CCc2nc3cnccn3c2C1c1sc(C)nc1C` (stereo not shown) [Example 17.3.1, N-(5-(2-(1-(2,4-dimethylthiazol-5-yl)-3,4-dihydropyrido[4′,3′:4,5]imidazo[1,2-a]pyrazin-2(1H)-yl)-2-oxoethoxy)-6-ethylpyridin-2-yl)methanesulfonamide] yielded an IC50 of 461 nM.

`COc1ccc(C2c3c(nc4cc(C(F)(F)F)ccn34)CCN2C(=O)COc2ccc(CN3CCOCC3)cc2Cl)c(F)c1` (stereo not shown) [Example 3.3.2, 2-(2-chloro-4-(morpholinomethyl)phenoxy)-1-(1-(2-fluoro-4-methoxyphenyl)-7-(trifluoromethyl)-3,4-dihydroimidazo[1,2-a:5,4-c′]dipyridin-2(1H)-yl)ethan-1-one] gave a concentration for half-maximal inhibition (IC50) of 7 nM.

`O=C(COc1ccc2ccccc2c1)N1CCc2nc3cc(C(F)(F)F)ccn3c2C1c1ncc2ccccn12` (stereo not shown) [Example 3.43.2, 1-(1-(imidazo[1,5-a]pyridin-3-yl)-7-(trifluoromethyl)-3,4-dihydroimidazo[1,2-a:5,4-c′]dipyridin-2(1H)-yl)-2-(naphthalen-2-yloxy)ethan-1-one] gave an IC50 of 209 nM. Against the preceding compound, the IC50 is about 30-fold higher.

As to `O=C(COc1ccc(N2CCOCC2)nc1Cl)N1CCc2nc3ccccn3c2C1c1cnc(N2CCOCC2)s1` (stereo not shown) [Example 1.6.1, 2-((2-chloro-6-morpholinopyridin-3-yl)oxy)-1-(1-(2-morpholinothiazol-5-yl)-3,4-dihydroimidazo[1,2-a:5,4-c′]dipyridin-2(1H)-yl)ethan-1-one], the IC50 is 387 nM.

The compound `CCc1cc2nc3c(n2cc1C)C(c1ccc(OC)c(OC)c1)N(C(=O)COc1ccc2ccccc2c1CC)CC3` (stereo not shown) [Example 6.1.3, 1-(1-(3,4-dimethoxyphenyl)-7-ethyl-8-methyl-3,4-dihydroimidazo[1,2-a:5,4-c′]dipyridin-2(1H)-yl)-2-((1-ethylnaphthalen-2-yl)oxy)ethan-1-one] gave an IC50 of 9 nM.

In turn, `Cc1cc(C2c3c(nc4cc(C(F)(F)F)ccn34)CCN2C(=O)COc2ccc3ccccc3c2)n(C)n1` (stereo not shown) [Example 3.40.1, 1-(1-(1,3-dimethyl-1H-pyrazol-5-yl)-7-(trifluoromethyl)-3,4-dihydroimidazo[1,2-a:5,4-c′]dipyridin-2(1H)-yl)-2-(naphthalen-2-yloxy)ethan-1-one] had an IC50 of 432 nM.

Compound `COCc1ccc(C2c3c(nc4ccccn34)CCN2C(=O)COc2ccc(C(=O)NC3CC3)nc2Cl)c(F)c1` (stereo not shown) [Example 1.18.1, 6-chloro-N-cyclopropyl-5-(2-(1-(2-fluoro-4-(methoxymethyl)phenyl)-3,4-dihydroimidazo[1,2-a:5,4-c′]dipyridin-2(1H)-yl)-2-oxoethoxy)picolinamide] came in with an IC50 of 38 nM. This IC50 lies about 11-fold lower than the previous one.

`COc1ccc(C2c3c(nc4cc(Cl)ccn34)CCN2C(=O)COc2ccc([N+](=O)[O-])cc2Cl)cc1OC` (stereo not shown) [Example 2.1.4, 1-(7-chloro-1-(3,4-dimethoxyphenyl)-3,4-dihydroimidazo[1,2-a:5,4-c′]dipyridin-2(1H)-yl)-2-(2-chloro-4-nitrophenoxy)ethan-1-one] registered an IC50 of 390 nM.

Regarding `COc1ccc(C2c3c(nc4cc(C(F)(F)F)ccn34)CCN2C(=O)COc2ccc3ccccc3c2)nc1OC` (stereo not shown) [Example 3.20.1, 1-(1-(5,6-dimethoxypyridin-2-yl)-7-(trifluoromethyl)-3,4-dihydroimidazo[1,2-a:5,4-c′]dipyridin-2(1H)-yl)-2-(naphthalen-2-yloxy)ethan-1-one], the half-inhibitory concentration (IC50) is 53 nM.

`COc1ncc(C2c3c(nc4cc(C(F)(F)F)ccn34)CCN2C(=O)COc2ccc(CN3CCOCC3)cc2Cl)cn1` (stereo not shown) [Example 3.55.2, 2-(2-chloro-4-(morpholinomethyl)phenoxy)-1-(1-(2-methoxypyrimidin-5-yl)-7-(trifluoromethyl)-3,4-dihydroimidazo[1,2-a:5,4-c′]dipyridin-2(1H)-yl)ethan-1-one]: the IC50 came to 266 nM.

`COc1ccc(C2c3c(nc4cc(Cl)ccn34)CCN2C(=O)COc2nn(C)c(C(F)(F)F)c2Cl)c(F)c1` (stereo not shown) [Example 2.3.3, 1-(7-chloro-1-(2-fluoro-4-methoxyphenyl)-3,4-dihydroimidazo[1,2-a:5,4-c′]dipyridin-2(1H)-yl)-2-((4-chloro-1-methyl-5-(trifluoromethyl)-1H-pyrazol-3-yl)oxy)ethan-1-one] returned a half-inhibitory concentration (IC50) of 208 nM.

Regarding `CS(=O)(=O)Nc1ccc(OCC(=O)N2CCc3nc4ccccn4c3C2c2ccc(OC(F)(F)F)cc2F)c(Cl)n1` (stereo not shown) [Example 1.19.1, N-(6-chloro-5-(2-(1-(2-fluoro-4-(trifluoromethoxy)phenyl)-3,4-dihydroimidazo[1,2-a:5,4-c′]dipyridin-2(1H)-yl)-2-oxoethoxy)pyridin-2-yl)methanesulfonamide0.71], the IC50 turned out to be 113 nM.

In turn, `COc1cc(C2c3c(nc4cc(C(F)(F)F)ccn34)CCN2C(=O)COc2ccc3ccccc3c2)ccc1OCCN(C)C` (stereo not shown) [Example 3.15.1, 1-(1-(4-(2-(dimethylamino)ethoxy)-3-methoxyphenyl)-7-(trifluoromethyl)-3,4-dihydroimidazo[1,2-a:5,4-c′]dipyridin-2(1H)-yl)-2-(naphthalen-2-yloxy)ethan-1-one] displayed an IC50 of 70 nM.

On to `O=C(COc1ccc(CN2CCOCC2)cc1Cl)N1CCc2nc3cc(C(F)(F)F)ccn3c2C1c1ncccc1F` (stereo not shown) [Example 3.21.2, 2-(2-chloro-4-(morpholinomethyl)phenoxy)-1-(1-(3-fluoropyridin-2-yl)-7-(trifluoromethyl)-3,4-dihydroimidazo[1,2-a:5,4-c′]dipyridin-2(1H)-yl)ethan-1-one], for which the IC50 worked out at 345 nM.

Values taken from patent publication US20180155344A1, “TRICYCLIC PIPERIDINE COMPOUNDS” (ACTELION PHARMACEUTICALS LTD, priority 2015, published 2018).
